“Also recorded” adds a separate entry of the source.
Experiments:
Assay type in all cases: in vivo
[1] = vegetable oil with mogroside sprayed onto vegetables, tasting; settings: vegetable oil with 800 ppm mogroside sprayed on
Source text: Mogroside may also be applied to vegetables, for example as a spray or as a dipping solution. The bitter and astringent flavor notes of many vegetables are thereby reduced substantially, resulting in a smoother-tasting vegetable. Mogroside can also reduce beany notes and off-flavors in vegetables. We dispersed an aqueous or ethanol solution of mogroside into vegetable oil at a concentration of 800 ppm. The vegetable oil was then sprayed onto vegetables, either before or after cooking. […] The mogroside may be applied to vegetables from aerosols or misting solutions. It may also be used in microwaving, steaming, or boiling of vegetables, as well as other methods of cooking. […] Treating vegetables with mogroside can help to improve their acceptability.

[2] = tasting of cocoa powder with mogroside; settings: plain + 200 ppm mogroside (plain: bitter)
Source text: (§1) Additional examples of the use of Mogroside V to alter the flavors of various consumables, and the experimental results obtained, are summarized in Table I: […]

[3] = tasting of pomegranate juice with mogroside; settings: plain + 200 ppm mogroside (plain: tannic)
Source text: as §1

[4] = tasting of turnip greens with mogroside in oil; settings: plain + 100 ppm mogroside in oil (plain: bitter)
Source text: as §1

[5] = tasting of rum with mogroside; settings: plain + 200 ppm mogroside (plain: sharp and bitter)
Source text: as §1

[6] = tasting of soy milk with mogroside; settings: plain + 200 ppm mogroside (plain: beany)
Source text: as §1

[7] = tasting of Ruby Red grapefruit with mogroside
Source text: as §1

[8] = tasting of Hominex amino acid beverage with mogroside; settings: 9.3 g Hominex/100 ml water + 100 ppm mogroside (plain: bitter, chalky, floury)

mogroside
observed flavor change ([1]; artichoke hearts): reduction in bitterness and grassy flavor | observed flavor change ([1]; broccoli): reduction in sulfur and bitter notes | observed flavor change ([1]; carrots): more intense sweetness | observed flavor change ([1]; corn): sweeter corn flavor | observed flavor change ([1]; green beans): sweeter flavor and fewer beany notes | observed flavor change ([1]; lima beans): reduction in bitterness | observed flavor change ([1]; peas): shorter flavor profile | flavor [2]: chocolate | flavor [3]: sweet | flavor [4]: semi-sweet; no; also recorded: beaniness | flavor [5]: sweet | flavor [6]: decreased beany flavor | flavor ([7]; plain + 100 ppm mogroside (plain: mild sour, mild sweet, very mild aftermath)): no difference from plain | flavor ([7]; plain + 200 ppm mogroside): mild sour, sweet, high | flavor ([7]; plain + 300 ppm mogroside): sweet, hint of sour,; also recorded: aftertaste of bitterness | flavor ([7]; plain + 400 ppm mogroside): very sweet, no sour,; also recorded: hint of bitterness | flavor ([7]; plain + 600 ppm mogroside): too sweet | flavor [8]: less so, but still floury
